Results published in patent publication US4835253A, “Specific inhibitors of tissue kallikrein” (The University Hospital, priority 1987, dated 1989).
Values joined by “and” are separate entries in the source; they are usually repeats but may differ in a detail not shown here. Identical values can stand only once. Like-named read-outs stand apart in the source and are kept apart here. Each block holds one compound with its values, some of them ahead of it. Ada = not defined here

Experiments:
[1] = target: T1, Human urinary kallikrein (Homo sapiens, UniProt P06870); experiment: KI determination: inhibition of HUK cleavage of chromogenic substrate S-2266; type: biochemical
T1 construct: Human urinary kallikrein (hereinafter "HUK") was highly purified using a modification of published methods; from tissue; host or cells: human urine
Experimental: (§1) Human urinary kallikrein (hereinafter "HUK") was highly purified using a modification of published methods that employ ultrafiltration, aprotinin-CH-sepharose affinity chromatography, and Sephadex G-100 gel filtration [ole-MoiYoi et al., Proc. Natl. Acad. Sci. USA 76: 3121-3125 (1979)]. […] The pH of each fraction was determined immediately upon elution, and the fraction was neutralized by addition of 2.0 ml of 2M Tris-HCL buffer (pH 8.0).
KI Determinations: KI measurements were performed using a HP8450A diode array spectrophotometer (Hewlett Packard; Palo Alto, Calif.) attached to a Model 216 computer using the multi-component assay program modified to allow simultaneous determination of reaction velocity in four samples. Dixon plots were used to data reduction and for calculation of […]. […] Inhibition of biologically active kinin from LMW-kininogen was done at pH 7.7 and 37 C.
Procedurally, the KI values for the preliminary analogue inhibitors reported previously [Okunishi et al., Hypertension 7 (Suppl. I): I-72-I-75 (1985)] were determined by adding the chromogenic substrate S-2266 comprising D-Val-Leu-Arg-4-nitroaniline to a mixture of the analogue inhibitor and the HUK.
(§2) Initially, the inhibitor constant (KI) for each of these novel inhibitor compositions was determined using purified HUK and the tripeptide nitroanilide, S-2266. The ability to inhibit hydrolysis of the S-2266 substrate was performed in 50 mM tris-HCL buffer (pH 9.0) at 37 C. Subsequently, the ability of these novel inhibitors to inhibit human plasma kallikrein and bovine pancreatic trypsin were similarly examined using the specific substrates H-D-Pro-Phe-Arg-p-nitroanilide (S-2302) and Glu-Gly-Arg-p-nitroanilide (S-2444) respectively. The degradation products of each series was purified by HPLC and quantified by liquid scintillation counting as previously described.

[2] = target: T1, Human urinary kallikrein; experiment: KM determination: hydrolysis of substrate analogues by HUK (HPLC, scintillation counting); type: biochemical; conditions: analysis of the reaction products
Experimental: as §1
KM Determination: Hydrolysis of the substrate analogue inhibitors by HUK was measured by combining the test inhibitor at different concentrations on either side of the KM value with the enzyme at pH 9.0 for thirty minutes at 37 C. The cleavage products were separated from the starting material in the digest by HPLC on a Beckman octadecylsilane (ODS) column (1×25 cm) using a thirty minute gradient of from 0-70% CH3 CN in triethylammonium phosphate buffer (pH 7.0). The starting materials and reaction products were completely resolved under these conditions. Absorbance of the HPLC effluent was monitored at 220 nm. Individual fractions were collected and the amount of peptide degradation products was quantitated by counting in a liquid scintillation counter. Samples containing individual inhibitors were incubated without HUK and solvent blanks were also chromatographed and analyzed in the same way.
For test purposes, in these HUA cleavage studies, individual peptide sequences were synthesized, purified, and characterized as previously described herein. For these cleavage studies, doubly labelled peptides were prepared using [^3 H]-valine and […] respectively. In addition, 6.0N HCL-dioxane was used for removal of tert-butoxycarbonyl protecting groups and 90% hydrogen fluoride/10% anisole (volume/volume) for global deprotection on completion of the synthesis. After extraction and gel filtration on Sephadex G-15, final purification was completed by isocratic elution from a synchrom RP-P column (2.1×25 cm) with CH3 CN--H2 O (8 ml/min). The resultant peptides were deemed to be homogeneous by amino acid analysis; high performance liquid chromatography; thin layer chromatography; and A230 /A260 ratio analysis. […]

[3] = target: Human Plasma Kallikrein (Homo sapiens, UniProt P03952); experiment: KI against plasma kallikrein with substrate S-2302; type: biochemical; conditions: read-out: K1, Human Plasma Kallikrein
Experimental: as §2

[4] = target: T2, bovine pancreatic trypsin (Bos taurus, UniProt P00760); experiment: KI against trypsin with substrate S-2444; type: biochemical; conditions: read-out: K1, Trypsin
T2 sequence (P00760 24-246): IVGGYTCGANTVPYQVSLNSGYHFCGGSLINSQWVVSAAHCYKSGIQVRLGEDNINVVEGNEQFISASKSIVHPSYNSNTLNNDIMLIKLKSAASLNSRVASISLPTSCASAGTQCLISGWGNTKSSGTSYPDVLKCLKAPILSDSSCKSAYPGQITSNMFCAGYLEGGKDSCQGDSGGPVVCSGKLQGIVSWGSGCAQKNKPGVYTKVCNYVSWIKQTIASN
Experimental: as §2

[5] = target: T3, rat submaxillary gland kallikrein (Rattus norvegicus, UniProt P00758); experiment: Rat femoral artery blood flow response to RSK during and after inhibitor infusion; type: in vivo
T3 sequence (P00758 25-261): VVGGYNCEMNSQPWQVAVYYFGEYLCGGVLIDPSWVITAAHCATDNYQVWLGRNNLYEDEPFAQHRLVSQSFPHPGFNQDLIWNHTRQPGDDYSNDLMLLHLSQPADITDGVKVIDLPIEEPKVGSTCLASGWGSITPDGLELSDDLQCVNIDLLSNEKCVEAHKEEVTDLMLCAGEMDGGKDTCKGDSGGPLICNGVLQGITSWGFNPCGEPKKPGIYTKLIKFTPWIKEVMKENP
Excerpt: (§3) In order to develop a more reproducible, less tachyphylactic system, a rat blood flow model was developed and assessed in male Sprague-Dawley rats. These animals were anesthetized subcutaneously with urethane (1.4 g/kg). Polyethylene PE-10 tubing was inserted into the right femoral artery and femoral vein for intra-arterial and intravenous injections, respectively, the arterial catheter was inserted such that the tip was located immediately proximal to the bifurcation. The rats were tracheostomized and cannulated with PE-200 tubing. A subcutaneous 23 gauge needle was left in the back of the animal for booster injections of urethane (0.35 g/kg every 2.5 hours). A blood flow probe (1.5 mm circumference) was placed on the left femoroal artery and the mean femoral arterial blood flow was monitored with a square-wave electromagnetic flowmeter (Carolina Medical Electronics, model 501). Rat submaxillary gland kallikrein (hereinafter "RSK") or porcine pancreatic kallikrein (hereinafter "PPK") was given intra-arterially, unless otherwise indicated, until a reproducible response was obtained. Each animal was then infused intravenously with KKI-7 inhibitor in DMSO (206 nmole/0.022 ml/min) or with the DMSO vehicle (0.022 ml/min). Bradykinin was also given intra-arterially to determine whether or not the KKI-7 inhibitor effected the blood flow response to bradykinin. The magnitude and duration of the responses to PPK, RSK, and bradykinin were compared before, during, and after the intravenous infusion of KKI-7 or the DMSO vehicle alone. The blood flow increase over the basal blood flow was integrated and expressed as arbitrary units or as the percent change from blood flow increased observed during the control period. The results are provided by FIG. 1 and Table IV below.

[6] = target: porcine pancreatic kallikrein (Sus scrofa, UniProt P00752); experiment: Rat femoral artery blood flow response to PPK during and after inhibitor infusion; type: in vivo
Excerpt: as §3

[7] = system: bradykinin; experiment: Rat femoral artery blood flow response to bradykinin during inhibitor infusion; type: in vivo
Excerpt: as §3, with “Each animal was then infused intravenously with KKI-7 inhibitor in DMSO (206 nmole/0.022 ml/min) or with the DMSO vehicle (0.022 ml/min). Bradykinin was also given intra-arterially to determine whether or not the KKI-7 inhibitor effected the blood flow response to bradykinin. The magnitude and duration of the responses to PPK, RSK, and bradykinin were compared before, during, and after the intravenous infusion of KKI-7 or the DMSO vehicle alone.” left out, “The results are provided by FIG. 1 and Table IV below.” left out

[8] = Mean arterial blood pressure in normotensive, salt-replete rats (infusion or bolus); type: in vivo, rat
Experimental: Subsequently, a third study utilizing normotensive, salt-replete rats was performed employing an infusion of KKI-7 at a rate of 200 ug of inhibitor per kilogram of rat per minute (200 ug/kg/min). Eight rats each received this infusion for 15 minutes during which the change in mean arterial blood pressure (Torr) was monitored. The results are provided by FIG. 2. In addition, a series of bolus injections were given to conscious, salt-replete, normotensive rats to determine the ED50 dosage necessary to cause a substantive increase in blood pressure. The results are graphically illustrated by FIG. 3 as the log-dose response effect of KKI-7 upon blood pressure.

[9] = Effects of the inhibitor infusion itself in the rat blood flow model; type: in vivo
Excerpt: as §3, with “Each animal was then infused intravenously with KKI-7 inhibitor in DMSO (206 nmole/0.022 ml/min) or with the DMSO vehicle (0.022 ml/min). Bradykinin was also given intra-arterially to determine whether or not the KKI-7 inhibitor effected the blood flow response to bradykinin. The magnitude and duration of the responses to PPK, RSK, and bradykinin were compared before, during, and after the intravenous infusion of KKI-7 or the DMSO vehicle alone.” left out, “The results are provided by FIG. 1 and Table IV below.” left out

[10] = target: T4, Rat urinary kallikrein (Rattus norvegicus, UniProt P00758); experiment: Blood pressure response to injected rat urinary kallikrein during inhibitor infusion; type: in vivo; conditions: infusion 32 nmol/min/animal, anesthetized rats, RUK 203.5 ng
T4 sequence (P00758 25-261): T3 sequence (P00758 25-261)
Experimental: A series of in-vivo studies were undertaken to determine the effective of the KKI-7 and KKI-8 inhibitors on the blood pressure response to glandular kallikrein. Initially, three female Dahl hypertension-resistant rats (Brookhaven Laboratories, Brookhaven, N.Y.), and four male Sprague-Dewley rats (Charles River, Wilmington, Mass.) were utilized. Each of these animals was anesthetized with Inactin (100 mg/kg ip) and cannulated in a femoral artery with PE-50 polyethylene tubing (Clay Adams, Parsippany, N.J.) which was connected to a Hewlett-Packard model 1280 blood pressure transducer and model 7702B recorder. The right jugular vein was cannulated with PE-10 tubing. The rats were tracheostomized, but respiration was not artificially assisted. Rat urinary kallikrein (hereinafter "RUK") was repeatedly administered via a venous cannula until a reproducable response was obtained. KKI-8 inhibitor was then infused using a Harvard model 901 infusion pump at a rate of 32 nmol/0.022 ml/min. RUK (203.5 ng in 50 ul) was injected during the infusion period. After the infusion was stopped, the reversibility of the inhibition was examined by further injections of RUK. The infusion of KKI-8 (32 nmol/min/animal) inhibited the very gradual and modest decrease in blood pressure otherwise elicited with RUK.

[11] = HUK, S-2266, text, read-out: KI values
[12] = S-2266, 50 mM tris-HCL pH 9.0, 37 C, read-out: K1, Human Urinary Kallikrein
[13] = iv infusion 206 nmole/0.022 ml/min in DMSO
[14] = iv infusion 206 nmole/0.022 ml/min in DMSO, 2 units PPK

T1 sequence (P06870 25-262): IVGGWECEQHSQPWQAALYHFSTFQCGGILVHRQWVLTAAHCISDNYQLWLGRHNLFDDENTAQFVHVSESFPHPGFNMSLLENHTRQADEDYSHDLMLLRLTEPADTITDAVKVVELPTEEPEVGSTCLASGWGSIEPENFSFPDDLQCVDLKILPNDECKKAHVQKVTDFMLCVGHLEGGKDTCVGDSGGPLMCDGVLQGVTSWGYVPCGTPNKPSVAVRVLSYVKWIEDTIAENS
porcine pancreatic kallikrein, sequence (P00752 8-246): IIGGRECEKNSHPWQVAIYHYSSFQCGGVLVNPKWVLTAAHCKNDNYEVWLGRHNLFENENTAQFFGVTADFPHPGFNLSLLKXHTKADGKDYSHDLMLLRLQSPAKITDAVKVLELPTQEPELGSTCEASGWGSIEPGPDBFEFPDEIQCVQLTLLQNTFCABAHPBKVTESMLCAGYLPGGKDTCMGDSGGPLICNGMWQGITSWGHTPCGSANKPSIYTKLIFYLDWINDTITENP
Human Plasma Kallikrein, sequence (P03952 20-638): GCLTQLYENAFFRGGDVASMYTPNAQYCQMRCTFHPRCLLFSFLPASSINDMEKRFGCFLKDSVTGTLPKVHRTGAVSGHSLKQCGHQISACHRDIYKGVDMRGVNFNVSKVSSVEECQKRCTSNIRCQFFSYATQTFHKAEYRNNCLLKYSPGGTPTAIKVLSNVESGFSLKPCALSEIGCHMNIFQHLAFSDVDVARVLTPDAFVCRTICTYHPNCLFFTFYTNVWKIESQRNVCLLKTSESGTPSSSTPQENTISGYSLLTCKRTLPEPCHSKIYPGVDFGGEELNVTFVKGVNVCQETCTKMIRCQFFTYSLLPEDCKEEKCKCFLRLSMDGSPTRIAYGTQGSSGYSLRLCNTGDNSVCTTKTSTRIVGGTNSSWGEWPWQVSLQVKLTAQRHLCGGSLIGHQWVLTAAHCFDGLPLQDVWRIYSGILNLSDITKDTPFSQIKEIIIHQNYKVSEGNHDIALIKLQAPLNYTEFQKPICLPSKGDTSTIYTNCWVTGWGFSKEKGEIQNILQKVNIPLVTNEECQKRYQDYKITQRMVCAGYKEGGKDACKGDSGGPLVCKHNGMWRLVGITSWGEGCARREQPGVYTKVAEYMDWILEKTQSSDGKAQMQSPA

- Ki [1, 11]: 4 µM
- Ki [1, 12]: 4 µM
- rate of cleavage by HUK relative to hexapeptides containing proline in the P3 position [2]: approximately 15%
- Ki [3]: 244 µM
- Ki [4]: 12.3 µM
- second phase of the response to RSK, of the control value, individual values ([5]; RSK reinjected 10-30 minutes after the infusion was started): 6% and 26%
- CHANGE IN BLOOD FLOW (% OF CONTROL), RSK injected, AFTER INFUSION 30-60 min [5, 13]: 35%
- CHANGE IN BLOOD FLOW (% OF CONTROL), RSK injected, AFTER INFUSION <10 min [5, 13]: 11%
- CHANGE IN BLOOD FLOW (% OF CONTROL), RSK injected, DURING INFUSION 10-30 min [5, 13]: 16%
- CHANGE IN BLOOD FLOW (% OF CONTROL), RSK injected, DURING INFUSION <10 min [5, 13]: 52%
- response to RSK injections, of the control response, range ([5]; within the first ten minutes after infusion was begun): 49-56%
- response to the injection of PPK ([6]; 2 units of PPK, during and after infusion): reduced
- CHANGE IN BLOOD FLOW (% OF CONTROL), PPK injected, AFTER INFUSION 30-60 min [6, 14]: 52%
- CHANGE IN BLOOD FLOW (% OF CONTROL), PPK injected, DURING INFUSION 10-30 min [6, 14]: 31%
- CHANGE IN BLOOD FLOW (% OF CONTROL), PPK injected, DURING INFUSION <10 min [6, 14]: 38%
Compound: CC(C)[C@H](NC(=O)[C@H](CO)NC(=O)[C@H](CCCNC(=N)N)NC(=O)[C@H](Cc1ccccc1)NC(=O)CC1CCCCC1)C(=O)N[C@@H](CCC(N)=O)C(N)=O [KKI-7, Cha-Phe-Arg-Ser-Val-Gln-NH2]
- effect on the response to bradykinin ([7]; bradykinin injected during the inhibitor infusion): no affect
- CHANGE IN BLOOD FLOW (% OF CONTROL), BK injected, DURING INFUSION <10 min ([7]; iv infusion 206 nmole/0.022 ml/min in DMSO, 1-2 ng bradykinin): 95%
- effect on mean arterial blood pressure ([8]; bolus injection or infusion 200 ug/kg/min for 15 minutes): induces substantial increases
- ED50 dose, increase in blood pressure ([8]; bolus injections, conscious, salt-replete, normotensive rats): 0.75 mg/kg
- side-effects of infusing ([9]; during the experimental period): No specific side-effects
- change in blood flow caused by the infusion itself ([9]; infusion in the DMSO vehicle): moderate, transient increase in blood flow

- Ki [1, 11]: 4.2 µM
- Ki [1, 12]: 4.2 µM
- rate of cleavage by HUK relative to hexapeptides containing proline in the P3 position [2]: approximately 15%
- Ki [3]: 358 µM
- Ki [4]: 71.8 µM
Compound: Ada-Phe-Arg-Ser-Val-Gln-NH2 (Ada-FRSVQ-NH2; reading uncertain; also: printed as Ada-Phe-Arg-Ser-Val-Gln-NH2) [KKI-8]
- effect on decrease in blood pressure elicited with RUK [10]: inhibited
